This note sets out measurements from patent publication US10149887B2, “Peptides and peptidomimetics in combination with t cell activating and/or checkpoint inhibiting agents for cancer treatment” (CanBas Co., Ltd., priority 2015, dated 2018).

In data set [1] the test system is Jurkat cells. The experiment in a line: M phase checkpoint abrogation / non specific toxicity, colchicine treated Jurkat cells. The note with it: dose with 5 μg/ml colchicine that produced Jurkat cell cycle disturbance, 24 hours. It counts as cell-based. How it is done: Flow cytometry analysis of M phase checkpoint abrogation by the compounds was performed using human T cell leukemia Jurkat cell line treated with colchicine (5 μg/ml or 0.5 μg/ml) and various doses of peptide/peptidomimetics for 24 hr (FIG. 12). The DNA of the cells was stained and analyzed by flow cytometry as described above.
(§1) The “Appearance of side effect when used alone” indicates the peptide/peptidomimetic dose that produced Jurkat cell cycle disturbance, i.e., the appearance of significant amounts of SubG1 cells (dead cells) or cells in which the DNA content of each varies more than usual. […] The “G2 abrogating dose” indicates the peptide/peptidomimetic dose with 40 μg/ml bleomycine that produced detectable G2 checkpoint abrogation activity following treatment for 24 hours. The “Appearance of side effect when used with colchicine” indicates the peptide/peptidomimetic dose with 5 μg/ml colchicine that produced Jurkat cell cycle disturbance following treatment for 24 hours.
A comparison between G2 checkpoint abrogating activity and non specific toxicity (M checkpoint abrogation) by CB501 was performed. In brief, Jurkat cells were treated with 40 μg/ml bleomycin or 0.5 μg/ml colchicine for G2 checkpoint abrogating activity and non specific toxicity, respectively. The DNA amount in each of the treated cells was analyzed by flow cytometry, as previously described.

Data set [2] has as its system Jurkat cells. Description: Side effect of peptide used alone: Jurkat cell cycle disturbance (flow cytometry). The format is cell-based. The note with it: dose that produced Jurkat cell cycle disturbance, peptide alone. How it is done: Cell-cycle analysis The cell cycle status of the cells treated with bleomycin or adriamcin were analyzed by flow cytometry as described by Kawabe (1997) Nature 385:454-458. In brief, two million cells were re-suspended and incubated in 200 μl Krishan's solution (0.1% Sodium citrate, 50 μg/ml PI, 20 μg/ml RNase A and 0.5% NP-40) for 1 hr at 4° C. and analyzed by a flow cytometry, FACScan™ (Beckton Dickinson, Mountain View, Calif.) with the program CELLQuest™ (Beckton Dickinson).
as §1
(In flow cytometry, cells or beads pass a laser one at a time.)

Square brackets hold non-standard residues; d marks the D form. Peptide text beside a SMILES is read from it. dPhe(F5) = N[C@H](Cc1c(F)c(F)c(F)c(F)c1F)C(=O)O; dCha = N[C@H](CC1CCCCC1)C(=O)O; Aun = NCCCCCCCCCCC(=O)O A value given as a limit tells only on which side of the number the result lay.

For `N=C(N)NCCC[C@@H](NC(=O)[C@@H](CCCCN)NC(=O)[C@@H](CCCCN)NC(=O)[C@@H](CCCNC(=N)N)NC(=O)[C@@H](CCCNC(=N)N)NC(=O)[C@@H](CCC(N)=O)NC(=O)[C@@H](CCCNC(=N)N)NC(=O)[C@@H](CCCNC(=N)N)NC(=O)[C@@H](CCCNC(=N)N)NC(=O)[C@@H](CC1CCCCC1)NC(=O)[C@@H](Cc1c(F)c(F)c(F)c(F)c1F)NC(=O)CCCCCCCCCCNC(=O)[C@@H](N)Cc1ccc(O)cc1)C(=O)NCC(=O)N[C@H](Cc1ccc(O)cc1)C(=O)O` [CBP461, (1-Tyr)(1-aminoundecanoic acid)(d-Phe-2,3,4,5,6-F)(d-Cha)(d-Arg)(d-Arg)(d-Arg)(d-Gln)(d-Arg)(d-Arg)(d-Lys)(d-Lys)(d-Arg)(1-Gly)(d-Tyr)] (H-Y[Aun][dPhe(F5)][dCha][dR][dR][dR][dQ][dR][dR][dK][dK][dR]G[dY]-OH; N-terminus and C-terminus assumed), the “Appearance of side effect when used with Colchicine” value (“Appearance … with Colchicine” for short) in data set [1] was over 6.25 µM. Further, in data set [2], the “Appearance of side effect when used alone” value (shortened to “Appearance … when used alone”) was over 6.25 µM.

Take `N=C(N)NCCC[C@H](NC(=O)CNC(=O)[C@@H](N)Cc1ccc(O)cc1)C(=O)N[C@@H](CCCCN)C(=O)N[C@@H](CCCCN)C(=O)N[C@@H](CCCNC(=N)N)C(=O)N[C@@H](CCCNC(=N)N)C(=O)N[C@@H](CCC(N)=O)C(=O)N[C@@H](CCCNC(=N)N)C(=O)N[C@@H](CCCNC(=N)N)C(=O)N[C@@H](CCCNC(=N)N)C(=O)N[C@@H](CC1CCCCC1)C(=O)N[C@@H](Cc1c(F)c(F)c(F)c(F)c1F)C(=O)NCCCCCCCCCCC(=O)N[C@@H](Cc1ccc(O)cc1)C(=O)N[C@@H](Cc1ccc(O)cc1)C(=O)O` [CBP440, (1-Tyr)(1-Gly)(1-Arg)(1-Lys)(1-Lys)(1-Arg)(1-Arg)(1-Gln)(1-Arg)(1-Arg)(1-Arg)(1-Cha)(1-Phe-2,3,4,5,6-F)(1-aminoundecanoic acid)(1-Tyr)(1-Tyr)]: the “Appearance … with Colchicine” value in data set [1] is over 3.125 µM. Also, the “Appearance … when used alone” value in data set [2] was over 12.5 µM.

With `N=C(N)NCCC[C@H](NC(=O)CNC(=O)[C@@H](N)Cc1ccc(O)cc1)C(=O)N[C@@H](CCCCN)C(=O)N[C@@H](CCCCN)C(=O)N[C@@H](CCCNC(=N)N)C(=O)N[C@@H](CCCNC(=N)N)C(=O)N[C@@H](CCC(N)=O)C(=O)N[C@@H](CCCNC(=N)N)C(=O)N[C@@H](CCCNC(=N)N)C(=O)N[C@@H](CCCNC(=N)N)C(=O)N[C@@H](CC1CCCCC1)C(=O)N[C@@H](Cc1c(F)c(F)c(F)c(F)c1F)C(=O)N[C@@H](CCCNC(=N)N)C(=O)N[C@@H](CO)C(=O)N1CCC[C@H]1C(=O)N[C@@H](CO)C(=O)N[C@@H](Cc1ccc(O)cc1)C(=O)O` [CBP420, (1-Tyr)(1-Gly)(1-Arg)(1-Lys)(1-Lys)(1-Arg)(1-Arg)(1-Gln)(1-Arg)(1-Arg)(1-Arg)(1-Cha)(1-Phe-2,3,4,5,6-F)(1-Arg)(1-Ser)(1-Pro)(1-Ser)(1-Tyr)], the “Appearance … with Colchicine” value in data set [1] was at least 50 µM. Moreover, in data set [2], the “Appearance … when used alone” value is over 50 µM.

In the case of `N=C(N)NCCC[C@@H](NC(=O)[C@@H](CCCCN)NC(=O)[C@@H](CCCCN)NC(=O)[C@@H](CCCNC(=N)N)NC(=O)[C@@H](CCCNC(=N)N)NC(=O)[C@@H](CCC(N)=O)NC(=O)[C@@H](CCCNC(=N)N)NC(=O)[C@@H](CCCNC(=N)N)NC(=O)[C@@H](CCCNC(=N)N)NC(=O)[C@@H](CC1CCCCC1)NC(=O)[C@@H](Cc1c(F)c(F)c(F)c(F)c1F)NC(=O)CCCCCCCCCCN)C(=O)NCC(=O)N[C@H](Cc1ccc(O)cc1)C(=O)O` [CBP463, (1-aminoundecanoic acid)(d-Phe-2,3,4,5,6-F)(d-Cha)(d-Arg)(d-Arg)(d-Arg)(d-Gln)(d-Arg)(d-Arg)(d-Lys)(d-Lys)(d-Arg)(1-Gly)(d-Tyr)] (H-[Aun][dPhe(F5)][dCha][dR][dR][dR][dQ][dR][dR][dK][dK][dR]G[dY]-OH; N-terminus and C-terminus assumed), the “Appearance … with Colchicine” value in data set [1] is over 6.25 µM. In data set [2], the “Appearance … when used alone” value is over 6.25 µM.
